Bounds are passed on as bounds.

Holding throughout (format): cell-based, human
For one experiment, the system named is HCC827 P cells. Kind of experiment: Combination analysis of cell growth inhibition (SRB, CalcuSyn). The procedure:
(§1) As described in Example 2.1. Two cell lines, HCC827-P and HCC827-TR (Tarceva-resistant HCC727 cells-an EGFRi resistant cell line with MET amplification) (Wang, Pursell et al. 2013) were used in the combination study. Exponentially growing HC[…] and HCC827-TR cells were seeded into 96-wells dishes at density of 3,000 cells per well. Twenty-four hours later, the cells were exposed concurrently to serial dilution of Reno647 or Carboplatin or Camptothecin alone or in combination at a ratio of 1:50 with Carboplatin or at ratio 1:1 with Camptothecin for 3 days. Reno647 were concurrently and sequentially with paclitaxel (Taxol) at ratio of 200:1 for 6 days. For sequential exposure, the cells were treated with Reno647 for 3 days, after removal of the drug containing medium, the cells were treated with Taxol for additional 3 days, or the cells were treated by Taxol first followed by the treatment with Reno 647. After incubation for 6 days, the cell growth was measured by SRB as described previously in Example 2.1 section, and the percentages of inhibition (1-T/C) % were calculated, and data were analyzed by a PC program, CalcuSyn, Biosoft (edited by T.-C. Chou, Memorial Sloan-Kettering Cancer Center, New York, and M. P. Hayball, at Cambridge, UK, 1996). The computer-calculated combination index (CI) was used to judge the outcomes of a combination: […] It has long been accepted that chemotherapy provided some benefit for patients with non-small-cell lung cancer (NSCLC) in terms of quality of life and symptomatology as well as modest improvements in survival. […] Cell growth was determined by SRB as described above. […] Cell growth was determined by SRB as described above. […] (FIG. 5 C&D, CIs were well below 1 at effective concentration), particularly at higher concentration where Reno647 achieves its effective inhibition on […]. […] However, induction of EGFR activation mediated by Taxol may compromise activity of EGFR inhibitors. To examine our hypothesis, Taxol was combined with Reno647 in three different sequential exposures: • Combination 1: exposure of HC[…] or TR cells to Reno647+Taxol simultaneously for 6 days. • Combination 2: exposure of the cells to Reno647 first for 3 days followed by treatment with Taxol for an additional 3 days, or • Combination 3: exposure of the cells to Taxol first for 3 days followed by treatment with Reno647 for an additional 3 days. Exposure of the cells to either Reno647 or Taxol served as controls. After exposure, cell growth was determined by SRB and analyzed as described in above section.

A further experiment deals with HCC827 TR cells. The description is as above. The procedure: as §1
In the next experiment the test system is HCC827-OR16. In words: qRT-PCR expression of p21. Particulars: HCC827-OR16, 24 h, q-RT-PCR. The procedure:
FIG. 10 depicts the effect of Reno647 on expressions of Caspase 3, Caspase 9 and p21 in HCC827-P and on Box, Bcl2, p53 and p21 in HCC827-OR16 cells. […] Total cellular RNA was extracted and cDNA was prepared followed by qRT-PCR using specific probes as described in the section of Materials and Methods. Tgene ΔCt value was normalized for GAPDH by calculating ΔCt=Ctgene−CtGAPDH per sample.
HCC827 P or other indicated cells at exponential growth phase were treated with indicated concentrations of compounds for 24 hours. Total cellular RNA was prepared from lysed tumor cells using an RNA Purification kit (ThermoFisher Scientific). The first-strand of cDNA was synthesized using a High Capacity cDNA reverse transcription kit (ThermoFisher Scientific) in PTC-100 Peltier Thermal Cycler PCR. The resultant cDNA (0.5-1 μL) was used in a 10 μl reaction by using Taqman Universal PCR Master Mix (ThermoFisher Scientific). The pre-designed primers and probe were purchased from Life Technologies and used for qPCR. Human GAPDH was used as an internal control. qPCR was performed using Applied Biosystems StepOne and StepOnePlus Real-Time PCR Systems according manufacturer's instructions. An initial PCR denaturation step was performed at 95° C. for 20 seconds. […]
Background: Quantitative PCR measures a nucleic acid by following its amplification.

Where [1] appears, read: HCC827P, ratio 200:1, 3 days + 3 days.
Setting [2] is: HCC827TR, ratio 200:1, 3 days + 3 days.

On to `C#Cc1cccc(Nc2ncnc3cc(OCCOC)c(NC(=O)c4ccc(F)c([N+](=O)[O-])c4)cc23)c1` [Reno647, 4-Fluoro-N-[4-(3-ethynyl-phenylamino)-7-(2-methoxy-ethoxy)-quinazolin-6-yl]-3-nitro-benzamide], for which the “combination index (CI), Reno647 with Camptothecin” value with HCC827 P cells (HCC827 P, ratio 1:1, concurrent, 3 days, at effective concentration) is listed as “below 1”; with HCC827 TR cells (HCC827 TR, ratio 1:1, concurrent, 3 days, at effective concentration) it was “below 1”. In addition, the “combination index (CI), Reno647 with Carboplatin” value in the experiment with HCC827 P cells (HCC827 P, ratio 1:50, concurrent, 6 days, at effective concentrations) is given as “below 1”; with HCC827 TR cells (HCC827 TR, ratio 1:50, concurrent, 6 days, at effective concentrations), “below 1”. The “combination index (CI), Reno647 first followed by Taxol” value in the experiment with HCC827 P cells (setting [1]) and in the experiment with HCC827 TR cells (setting [2]) was over 1 each time. Also, the “combination index (CI), Taxol first followed by Reno647” value in the experiment with HCC827 P cells (setting [1]) and with HCC827 TR cells (setting [2]) was under 1 each time. For the same compound, the “combination index (CI), Reno647 and Taxol concurrently” value is reported as under 1 in the experiment on HCC827 P cells (HCC827P, ratio 200:1, 6 days) and under 1 in the experiment with HCC827 TR cells (HCC827TR, ratio 200:1, 6 days). Further, in the experiment on HCC827-OR16, the p21 expression entry is “significant induction”.

The values above are taken from patent US20190169134A1, “NOVEL CLASS OF QUINOLONE HETEROCYCLIC AROMATIC MOLECULES FOR CANCER TREATMENT” (RenoTarget Therapeutics, Inc., priority 2016, published 2019).
